Tests used:
[1] = system: IGF-IR β subunit and substrates; assay: Immunoprecipitation and anti-phosphotyrosine Western blot, MCF-7; assay type: cell-based, human
Protocol: (§1) Cells were then washed with PBS, solubilized in 30 mM Hepes pH 7.4, 150 mM NaCl, 1% Triton X-100, and spun at maximal speed in a microfuge for 15 min. Cell lysates (1 to 3 mg) were then immunoprecipitated respectively with anti-Shc, anti-IRS-1 or anti-IGF-IR antibodies overnight at 4° C. Immunoprecipitates were collected by addition of Protein A-Sepharose beads, washed three times with lysis buffer and resuspended finally in Laemmli sample buffer (Long et al 1986a). Immunoprecipitates were resolved by SDS-PAGE and transferred onto nitrocellulose membranes followed by immunoblotting with anti-phosphotyrosine antibodies or with antibodies to IRS-1, Shc or IGF-1R followed by HRP—conjugated goat anti-mouse or goat anti-rabbit IgG antibodies.

[2] = system: IGF-IR β subunit and substrates; assay: Immunoprecipitation and anti-phosphotyrosine Western blot, H-59; assay type: cell-based, murine
Protocol: as §1

[3] = system: H-59 tumor cells; conditions: in vivo; cited from earlier work
[4] = system: IGF-I proteolysis in H-59 and MCF-7 cell lysates; assay: IGF-1 proteolysis assay, tumor cell lysates; assay type: biochemical
Protocol: These preparations were incubated for various lengths of time at 37° C. with 10-^6 M unlabeled or 50,000 cpm [^125I]-labeled IGF-1 in 200 or 400 μl of 50 mM citrate-phosphate pH 5, respectively. The integrity of the radiolabeled ligand was assessed by precipitation with 10% trichloroacetic acid (Authier et al, 1995). To measure proteolysis of the unlabeled IGF-1, the samples were acidified with acetic acid (15%) and immediately loaded onto a reverse-phase HPLC column. Reverse-phase HPLC was performed on a Waters model 600 liquid chromatograph equipped with a model U6K sample injector fitted with a […] and a mBondapak C18 column (Waters, 0.39×30 cm, […]). Samples were chromatographed using as eluent a mixture of 0.1% TFA in water (solvent A) and 0.1% TFA in acetonitrile (solvent B) with a flow rate of 1 ml/min. Elution was carried out using two sequential linear gradients followed by an isocratic elution: an initial gradient of 0-20% solvent B (30 min); a second gradient of 20-39% solvent B (15 min); and a third isocratic elution of 39% solvent B (15 min). Eluates were monitored on-line for absorbance at 214 nm with a LC spectrophotometer.

[5] = system: endosomal IGF-I proteolysis; assay: IGF-1 proteolysis assay, liver endosomal extract; assay type: biochemical, rat
Protocol: H-59 is a highly metastatic subline of the Lewis lung carcinoma with metastatic predilection for the liver, (Brodt et al 1986). Human breast carcinoma cell line MCF-7 was a gift from Dr. Mader (Dept of Biochemistry, University of Montreal, PQ, Canada). Endosomal fractions were prepared from livers of male Sprague-Dawley rats after an 18 h period of fasting. The livers were homogenized and the endosomal fractions isolated by discontinuous sucrose gradient centrifugation and collected at the 0.25 M to 1.0 M sucrose interface (20, 21, 24). The soluble extract (ENs) from the endosomal fractions was isolated by freeze/thawing in 5 mM Na-phosphate pH 7.4, and disrupted in the same hypotonic medium using a small Dounce homogenizer (15 strokes with the tight Type A pestle) followed by centrifugation at 300,000×gav for 30 min as described previously (20, 21, 24).
These preparations were incubated for various lengths of time at 37° C. with 10-^6 M unlabeled or 50,000 cpm [^125I]-labeled IGF-1 in 200 or 400 μl of 50 mM citrate-phosphate pH 5, respectively. The integrity of the radiolabeled ligand was assessed by precipitation with 10% trichloroacetic acid (Authier et al, 1995). […] Eluates were monitored on-line for absorbance at 214 nm with a LC spectrophotometer.

[6] = system: IGF-IR; assay: IGF-IR mRNA and total immunoprecipitable receptor levels; assay type: cell-based; conditions: H-59 and MCF-7
Protocol: as §1

[7] = system: MCF-7 cells; assay: IGF-I induced thymidine incorporation with E-64, MCF-7; assay type: cell-based, human
[8] = system: MMP-2; assay: IGF-1-mediated induction of MMP-2 synthesis (Northern, Western, zymography); assay type: cell-based, murine
Excerpt: This medium was replenished on alternate days for 12 days. […] Blots were probed with a 1:500 dilution of mAb Ab-45 to MMP-2 and an alkaline phosphatase conjugated affinity purified, goat anti rabbit IgG, diluted 1:2000. For Northern blotting, a ^32P-labeled 1.1-Kb human MMP-2 and an 800-bp rat cyclophilin cDNA fragment were used as hybridization probes.

[9] = system: human IGF-I receptor; assay: Fluorocytometry of cell surface IGF-1 receptors with mAb αIR3, MCF-7; assay type: cell-based
Protocol: (§2) The ligand-binding assay and fluorocytometry were used to measure cell surface IGF-1 receptors on the murine H-59 and human MCF-7 cells, respectively. […] Incubation was for 1 h at 37° C. following which the cells were rinsed and lysed in 0.01 N NaOH containing 0.1% Triton X-100 and 0.1% SDS and the radioactivity measured. The number of cells/plate at the time of the assay was determined from triplicate control wells which were manipulated in a similar manner. The Ligand program (27, 28) was used to calculate the number of IGF-1 binding sites per cell. IGF-1 receptors on MCF-7 cells were immunofluorescence labeled using 5 μg/ml mAb αIR3 and an FITC-conjugated goat anti-mouse IgG (diluted 1:50). […] Labeled cells were fixed in PBS containing 1% formalin and analyzed using a FACS Calibur System (Becton-Dickinson, San Jose, Calif.).

[10] = system: IGF-I binding sites on H-59 cells; assay: Ligand-binding assay of cell surface IGF-1 receptors, H-59; parameters: species or system murine
Protocol: as §2

[11] = system: H-59 cells; assay: IGF-I induced thymidine incorporation with E-64, H-59; assay type: cell-based, murine

## CC(C)C[C@H](NC(=O)[C@H]1O[C@@H]1C(=O)O)C(=O)NCCCCN=C(N)N (relative stereo) [E-64, trans-epoxysuccinyl-L-leucylamido (4-guanidino)-butane]
[1]
  tyrosine phosphorylated IRS-1: increase
[2]
  ligand-induced tyrosine phosphorylation of p52shc: increase
[3]
  liver colonization by H-59 tumor cells: inhibited liver colonization
[4]; cell lysates, radioiodinated IGF-I, 1 hr
  increase in TCA-soluble radioactivity over time (IGF-I proteolysis): completely abolished
[4]; lysates of E-64-treated tumor cells, acidic pH
  IGF-I degradation products by reverse phase HPLC: absent following E-64 treatment
[5]; endosomal fractions, radioiodinated IGF-I, 1 hr
  increase in TCA-soluble radioactivity over time (IGF-I proteolysis): completely abolished
[5]; liver parenchymal endosomal fractions, acidic pH
  IGF-I degradation products by reverse phase HPLC: absent following E-64 treatment
[6]
  IGF-IR mRNA levels: In neither of these cell types did E-64 treatment cause a reduction
[7]; MCF-7
  incorporation of 3H-thymidine in response to IGF-I: completely abrogated
[7]; MCF-7, E-64 10 μg/ml
  IGF-I induced proliferation: abolished
[8]; H-59, E-64 10 μg/ml
  reduction of MMP-2 mRNA synthesis: 2 fold
[8]; Western blotting and gelatin zymography, E-64 10 μg/ml
  MMP-2 production and activity: decreased MMP-2 production and activity
[9]; MCF-7, 40 min after addition of ligand
  reduction in the number of immunolabeled cells: 45%
[9]; MCF-7, 40 min after addition of ligand (declining from 255)
  mean intensity of fluorescence: 82
[10]; H-59, E-64 treated (untreated 3.9×10^5)
  number of IGF-I binding sites: 1.8×10^5 sites/cell
[10]; H-59, E-64 treated vs untreated
  reduction of the number of IGF-I binding sites: more than 2 fold
[11]; H-59
  incorporation of 3H-thymidine in response to IGF-I: completely abrogated
[11]; H-59, E-64 10 μg/ml
  IGF-I induced proliferation: abolished

— patent US20030031658A1, “Targeting of endosomal growth factor processing as anti-cancer therapy” (priority 1999, published 2003)
